Test system: BALB/c mice
Test: In vivo expression of hEPO after IM injection of LNP formulations in BALB/c mice
Details: lipid nanoparticles with hEPO mRNA, Cationic Lipid, DMG-PEG2000, Cholesterol and DOPE; single intramuscular injection into gastrocnemius muscle, 0.1 ug; male BALB/c mice; 6 hours post-dose; ELISA; FIG. 1
Experimental: FIG. 1 depicts in vivo protein production resulting from the delivery of mRNA using lipid nanoparticles comprising Compound 30 as described herein.
Lipid nanoparticle formulations comprising human erythropoietin (hEPO) mRNA, Cationic Lipid, DMG-PEG2000, Cholesterol and DOPE were administered intramuscularly to study mRNA delivery and resultant hEPO expression. Male BALB/c mice at 6-8 weeks old are given a single injection of the LNP formulations into the gastrocnemius muscle at a dosage level of 0.1 ug. Blood samples were collected at 6 hours post-dose, hEPO protein expression levels were measured in the sera samples by ELISA and presented in FIG. 1.

SMILES: CCCCCCCCCCC(O)CN(CCCC(=O)SCCCCSC(=O)CCCN(CC(O)CCCCCCCCCC)CC(O)CCCCCCCCCC)CC(O)CCCCCCCCCC (stereo not shown) [Compound 30]
- hEPO protein expression levels in sera (in vivo protein production): high levels of in vivo protein production
